Our source for the T/C values is PubChem BioAssay AID330 (DTP/NCI, 2004).

In this test the test system is P388 leukemia ip, CD2F1 mice, survival T/C. Nature of the test: NCI In Vivo Anticancer Drug Screen. Data for tumor model P388 Leukemia (intraperitoneal) in CD2F1 (CDF1) mice. The settings on record: endpoint: median survival time, higher = longer survival. The method, boiled down: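 Mice carrying the transplanted tumor received test compound or vehicle. Survival was recorded in each group, and the value is the treated-group measurement divided by that of the vehicle-treated control group.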

Several values for one entry are separate records, joined by “and”; a condition that tells them apart may be missing. Identical values can stand only once. Toxic doses and inconclusive results are not listed.

`COC(=O)c1nnn(-c2ccc(Cl)cc2C)c1C(=O)c1ccc(OC)cc1`: the T/C runs as follows: (dose: 60.0 mg/kg/injection, schedule: Q01DX005 (ip), vehicle: Klucel + Tween-80) 102 % of control; (dose: 120.0 mg/kg/injection, schedule: Q01DX005 (ip), vehicle: Klucel + Tween-80) 108 % of control; (dose: 240.0 mg/kg/injection, schedule: Q01DX005 (ip), vehicle: Klucel + Tween-80) 93 % of control.

With `CC1(C)CC(OP(=[Se])(OC2CC(C)(C)N(O)C(C)(C)C2)c2ccccc2)CC(C)(C)N1O`, the T/C (dose: 12.5 mg/kg/injection, schedule: Q01DX001 (ip), vehicle: Klucel (hydroxypropylcellulose) (HPC)) is 102 % of control; the T/C (dose: 25.0 mg/kg/injection, schedule: Q01DX001 (ip), vehicle: Klucel (hydroxypropylcellulose) (HPC)) was 102 % of control; the T/C (dose: 50.0 mg/kg/injection, schedule: Q01DX001 (ip), vehicle: Klucel (hydroxypropylcellulose) (HPC)) was 105 % of control.

For `CCCCCCSCN(CC)CC`, the T/C by setting is: (dose: 50.0 mg/kg/injection, schedule: Q01DX009 (ip), vehicle: saline) 103 % of control; (dose: 100.0 mg/kg/injection, schedule: Q01DX009 (ip), vehicle: saline) 107 % of control; (dose: 200.0 mg/kg/injection, schedule: Q01DX009 (ip), vehicle: saline) 112 % of control.

With `COc1cc([C@@H]2c3cc4c(cc3[C@@H](OC3OC5CO[C@@H](c6cccs6)OC5C(O)C3O)[C@H]3COC(=O)[C@H]23)OCO4)cc(OC)c1O` (some centres undefined), the T/C runs as follows: (dose: 0.25 mg/kg/injection, schedule: Q01DX009 (ip), vehicle: saline) 170 % of control; (dose: 0.5 mg/kg/injection, schedule: Q01DX009 (ip), vehicle: saline) 208 % of control; (dose: 0.75 mg/kg/injection, schedule: Q01DX005 (iv), vehicle: saline) 100 % of control; (dose: 1.0 mg/kg/injection, schedule: Q01DX009 (ip), vehicle: saline) 261 % of control; (dose: 1.5 mg/kg/injection, schedule: Q01DX005 (iv), vehicle: saline) 104 % of control; (dose: 2.0 mg/kg/injection, schedule: Q01DX005 (ip), vehicle: saline) 155 % of control. Moreover, the T/C reads like this: (dose: 2.0 mg/kg/injection, schedule: Q01DX009 (ip), vehicle: saline) 157 % of control and 449 % of control; (dose: 3.0 mg/kg/injection, schedule: Q01DX005 (iv), vehicle: saline) 99 % of control; (dose: 3.24 mg/kg/injection, schedule: Q04DX003 (ip), vehicle: clinical formulation) 225 % of control; (dose: 3.89 mg/kg/injection, schedule: Q04DX003 (ip), vehicle: saline) 166 % of control; (dose: 4.0 mg/kg/injection, schedule: Q01DX005 (ip), vehicle: saline) 166 % of control; (dose: 5.4 mg/kg/injection, schedule: Q04DX003 (ip), vehicle: clinical formulation) 239 % of control. The T/C is, setting by setting: (dose: 6.0 mg/kg/injection, schedule: Q01DX005 (ip), vehicle: saline) 167 % of control; (dose: 6.0 mg/kg/injection, schedule: Q01DX005 (iv), vehicle: saline) 116 % of control; (dose: 6.48 mg/kg/injection, schedule: Q04DX003 (ip), vehicle: clinical formulation) 170 % of control; (dose: 6.48 mg/kg/injection, schedule: Q04DX003 (ip), vehicle: saline) 163 % of control; (dose: 7.78 mg/kg/injection, schedule: Q04DX003 (ip), vehicle: saline) 175 % of control; (dose: 8.0 mg/kg/injection, schedule: Q01DX005 (ip), vehicle: saline) 222 % of control. The T/C is 371 % of control (dose: 9.0 mg/kg/injection, schedule: Q04DX003 (ip), vehicle: clinical formulation); 203 % of control (dose: 10.8 mg/kg/injection, schedule: Q04DX003 (ip), vehicle: clinical formulation); 211 % of control (dose: 10.8 mg/kg/injection, schedule: Q04DX003 (ip), vehicle: saline); 168 % of control (dose: 13.0 mg/kg/injection, schedule: Q04DX002 (ip), vehicle: saline); 194 % of control (dose: 13.0 mg/kg/injection, schedule: Q04DX003 (ip), vehicle: saline); 371 % of control (dose: 15.0 mg/kg/injection, schedule: Q04DX003 (ip), vehicle: clinical formulation). For the same compound, the T/C reads like this: (dose: 16.0 mg/kg/injection, schedule: Q01DX005 (ip), vehicle: saline) 206 % of control; (dose: 18.0 mg/kg/injection, schedule: Q04DX003 (ip), vehicle: clinical formulation) 252 % of control; (dose: 18.0 mg/kg/injection, schedule: Q04DX003 (ip), vehicle: saline) 211 % of control; (dose: 21.6 mg/kg/injection, schedule: Q04DX002 (ip), vehicle: saline) 171 % of control; (dose: 21.6 mg/kg/injection, schedule: Q04DX003 (ip), vehicle: saline) 203 % of control; (dose: 25.0 mg/kg/injection, schedule: Q04DX003 (ip), vehicle: clinical formulation) 287 % of control. In addition, the T/C (dose: 30.0 mg/kg/injection, schedule: Q04DX003 (ip), vehicle: clinical formulation) was 211 % of control; the T/C (dose: 30.0 mg/kg/injection, schedule: Q04DX003 (ip), vehicle: saline) is 257 % of control; the T/C (dose: 36.0 mg/kg/injection, schedule: Q04DX003 (ip), vehicle: saline) is 296 % of control; the T/C (dose: 60.0 mg/kg/injection, schedule: Q04DX002 (ip), vehicle: saline) is 198 % of control; the T/C (dose: 60.0 mg/kg/injection, schedule: Q04DX003 (ip), vehicle: saline) is 296 % of control; the T/C (dose: 100.0 mg/kg/injection, schedule: Q04DX002 (ip), vehicle: saline) was 217 % of control.

As to `N#CN=[N+]([O-])c1ccccc1Cl`, the T/C (dose: 3.12 mg/kg/injection, schedule: Q01DX009 (ip), vehicle: Klucel (hydroxypropylcellulose) (HPC)) is 100 % of control; the T/C (dose: 6.25 mg/kg/injection, schedule: Q01DX009 (ip), vehicle: Klucel (hydroxypropylcellulose) (HPC)) was 107 % of control; the T/C (dose: 6.25 mg/kg/injection, schedule: Q04DX003 (ip), vehicle: Klucel (hydroxypropylcellulose) (HPC)) is 91 % of control; the T/C (dose: 12.5 mg/kg/injection, schedule: Q01DX009 (ip), vehicle: Klucel (hydroxypropylcellulose) (HPC)) was 109 % of control; the T/C (dose: 12.5 mg/kg/injection, schedule: Q04DX003 (ip), vehicle: Klucel (hydroxypropylcellulose) (HPC)) was 100 % of control; the T/C (dose: 25.0 mg/kg/injection, schedule: Q04DX003 (ip), vehicle: Klucel (hydroxypropylcellulose) (HPC)) is 91 % of control.

Consider `Nc1ncnc2[nH]c(=S)[nH]c12`, for which the T/C runs as follows: (dose: 1.56 mg/kg/injection, schedule: Q01DX005 (ip), vehicle: Klucel (hydroxypropylcellulose) (HPC)) 110 % of control; (dose: 3.12 mg/kg/injection, schedule: Q01DX005 (ip), vehicle: Klucel (hydroxypropylcellulose) (HPC)) 94 % of control; (dose: 6.25 mg/kg/injection, schedule: Q01DX005 (ip), vehicle: Klucel (hydroxypropylcellulose) (HPC)) 99 % of control and 97 % of control.

With `CC1(C)CC(=O)C(C(=O)c2ccccc2)=[N+]1[O-]`, the T/C is 97 % of control (dose: 50.0 mg/kg/injection, schedule: Q01DX005 (ip), vehicle: Klucel (hydroxypropylcellulose) (HPC)); 100 % of control (dose: 100.0 mg/kg/injection, schedule: Q01DX005 (ip), vehicle: Klucel (hydroxypropylcellulose) (HPC)); 99 % of control (dose: 200.0 mg/kg/injection, schedule: Q01DX005 (ip), vehicle: Klucel (hydroxypropylcellulose) (HPC)).

For the compound `Clc1ccc(OCC(Cn2ccnc2)c2ccc(Cl)cc2)cc1` (centres undefined), the T/C runs as follows: (dose: 50.0 mg/kg/injection, schedule: Q01DX009 (ip), vehicle: saline with Tween-80) 100 % of control; (dose: 100.0 mg/kg/injection, schedule: Q01DX009 (ip), vehicle: saline with Tween-80) 100 % of control.

As for `COc1ccc(NS(=O)(=O)c2ccc(N=Cc3c4ccccc4nc4cc(Cl)ccc34)cc2)nn1`, the T/C was 91 % of control (dose: 60.0 mg/kg/injection, schedule: Q01DX005 (ip), vehicle: saline with Tween-80); 90 % of control (dose: 120.0 mg/kg/injection, schedule: Q01DX005 (ip), vehicle: saline with Tween-80); 87 % of control (dose: 240.0 mg/kg/injection, schedule: Q01DX005 (ip), vehicle: saline with Tween-80).

For `CC(Cl)CN(CC(C)Cl)c1ccc2c(c1)Cc1ccccc1-2` (centres undefined), the T/C reads like this: (dose: 50.0 mg/kg/injection, schedule: Q01DX009 (ip), vehicle: Klucel (hydroxypropylcellulose) (HPC)) 122 % of control; (dose: 100.0 mg/kg/injection, schedule: Q01DX009 (ip), vehicle: Klucel (hydroxypropylcellulose) (HPC)) 112 % of control.
